From article PMC11066871 (Journal of the American Chemical Society, 2024)

Columns and labels:
[1] = system: anti-pS2 antibody 2G1; test: Indirect ELISA, relative binding at single antibody dilution; design: species or system rabbit; details: immobilized peptide
Description: (§1) To allow rapid screening, the His6-tagged CTD peptides were immobilized onto Ni^2+-coated 96-well microtiter plates. The immobilized peptides were incubated with increasing concentrations of the anti-pS2 antibody E1Z3G. […] Next, positional scanning was performed with anti-pS2 antibodies EPR18855 (Abcam) and 2G1 (Thermo Fisher/Invitrogen). Here, and in subsequent experiments, we refrained from obtaining titration curves and instead determined the fold change of antibody binding relative to that of a reference binder (Figure 4B).
(§2) Figure 4 (A) Titration of the E1Z3G primary antibody to immobilized hexaheptade peptides. […] (C) Probing chelate and cluster effects upon binding of EPR18855, 2G1, and E1Z3G mAbs to hexaheptad peptides containing two or six pSer2 residues. […] 100 μL of TMB–H2O2 solution (1:1), 20 min, 25 °C, ii. 100 μL of 2 M H2SO4, 1 min, 25 °C. Washes and dilution of the antibodies were performed with NaH2PO4, 200 mM BSA (1% w/v), and 0.05% Tween-20 at pH 7.4. Assays were performed in triplicate with randomized positions of probes or antibodies.
(§3) A stock solution in immobilization buffer (NaH2PO4 200 mM, pH 7.4 ) was prepared for every test peptide. The […]
(§4) withdrawn and diluted step w ise with immobilization buffer from high µM range to 300 nM. Stock solution s an d sample s w ere stored at - 8 0°C.
(§5) - Thawing o f all the sampl es at room temperature for 30 min utes. The samples were quickly centrifuged and carefully mi xed before being used.
(§6) - Plating of the samples (100 µl) into a black non-binding 96-well plate that was previously conditioned overnight with wash buffer (NaH2PO4 200 mM, BS A 1% w/ v, Tween -20 0. 05%, pH 7. 4) and washed 3 times with the immobilization buffer.
(§7) - Sample s wer e transferred wit h a multi-channel pip ette to the clear Ni2+-coated 96 -well p late. Thi s plate-to-plate transfer provided full control of the timing of the Ni2+ -His6 interaction.
(§8) - Incubation for one hour at 25°C.
(§9) - Preparation of the primary antibody dilutions from the stock and then subsequent serial dilutions using […]
(§10) - Wash ing the plate 5 tim es for one minute with wa sh buffer (200 µl) .
(§11) - Plating of the primary antibody (100 µl) and incubation of the primary antibody for 1 hour at 37°C.
(§12) - Preparation of the dilution and plating (100 µl) of the secon dary antibody.
(§13) - Incubation for 30 minutes at 37°C.
(§14) - Wash ing the plate 5 times for one minute with wa sh buffer (200 µl) .
(§15) - Plating of the freshly prepared TMB-H 2O2 solution (1:1, 10 0 µl) .
(§16) - TMB solution incubation for 20 minutes at 25 °C.
(§17) - Plating of the Stop solution (2 M H2SO4, 1 00 µL).
(§18) - Incubation at 25°C for 1 minute.
(§19) - Plate reading at 450 nm, nor mal aperture, 1 second as m e asurem ent time . […]
(§20) for the primary and secondary antibodies. The average value of the optical density of the blanks was subtracted from the OD of the analyte s in the s ame plate befor e data analysi s. All the e xperi ments have be en perfor med a s biologi cal triplicate unless otherwise stated. […]
(§21) in each triplicate to provide randomization on the plate. […]
(§22) - Relative affinity mea suremen ts: 3 serial dilutions o f the pri mary mAbs wer e used in the experi ment fro m […]
(§23) nM). The relati ve binding valu es wer e g enerated by dividing the OD value for each probe by the OD value of the referenc e peptide tested in the sa me plat e, with th e sa me conditions. […]

[2] = system: anti-pS2 antibody EPR18855; test: as above; design: species or system rabbit; details: immobilized peptide
Description: as §1, §2, §3, §4, §5, §6, §7, §8, §9, §10, §11, §12, §13, §14, §15, §16, §17, §18, §19, §20, §21, §22, §23

[3] = system: anti-pS2 antibody 2G1; test: Competitive ELISA with immobilized phosphopeptide 35; assay type: binding, rabbit; details: for LogIC50, best-fit value (Table S4, 2G1): log10 of competitor concentration, One site-Fit logIC50; for competition against immobilized peptide 35 for antibody binding (in words): peptide in solution, increasing concentrations
Description: (§24) The 100% binding value refers to binding of antibody to immobilized 35 in the absence of competitor.
as §3, §4, §5, §6, §7, §8, §9, §10, §11, §12, §13, §14, §15, §16, §17, §18, §19, §20, §21
(§25) After the incubation time and the wash, the seri es of dilutions ( 300, 100, 50, 25, 1 2.5, 6.2 5, 2. 1 and 0.7 nM) of the co mpetit ors wa s plated, all […]
(§26) the samples in half the volu me (50 µL) and double the concentration. Incubation for 5 minutes at 25°C.
(§27) Plating of the primary antibody in half the volume (50 µL) and double the concentration. The final volume in each well was 100 µL, and the final concentration of the primary antibody was 1:1000. On the same plate, a highly concentrated sample of each competitor (1.2 µM) was also plated to evaluate p ossible unspecific

[4] = system: anti-pS2 antibody EPR18855; test: as above; assay type: binding, rabbit; details: for LogIC50, best-fit value (Table S4, EPR18855): log10 of competitor concentration, One site-Fit logIC50; for competition against immobilized peptide 35 for antibody binding (in words): peptide in solution, increasing concentrations
Description: as §24, §3, §4, §5, §6, §7, §8, §9, §10, §11, §12, §13, §14, §15, §16, §17, §18, §19, §20, §21, §25, §26, §27

[5] = system: anti-pS2 antibody E1Z3G; test: as above; assay type: binding, rabbit; details: for LogIC50, best-fit value (Table S4, E1Z3G): log10 of competitor concentration, One site-Fit logIC50; for competition against immobilized peptide 35 for antibody binding (in words): peptide in solution, increasing concentrations
Description: as §24, §3, §4, §5, §6, §7, §8, §9, §10, §11, §12, §13, §14, §15, §16, §17, §18, §19, §20, §21, §25, §26, §27

[6] = system: anti-pS2 antibody E1Z3G; test: Indirect ELISA, relative binding at single antibody dilution; design: species or system rabbit; details: immobilized peptide
Description: as §1, §2, §3, §4, §5, §6, §7, §8, §9, §10, §11, §12, §13, §14, §15, §16, §17, §18, §19, §20, §21, §22, §23

competition against immobilized peptide 35 for antibody binding (in words) [3] | competition against immobilized peptide 35 for antibody binding (in words) [4] | competition against immobilized peptide 35 for antibody binding (in words) [5] | binding enhancement of E1Z3G relative to 35 [6] [fold] | Substance | recognition by 2G1 (in words) [1] | recognition by EPR18855 (in words) [2] | LogIC50, best-fit value (Table S4, 2G1) [3] | LogIC50, best-fit value (Table S4, EPR18855) [4] | LogIC50, best-fit value (Table S4, E1Z3G) [5]
 |  |  |  | H6-NH-(CH2)2-PEG6-CO-YSPTSPS-YpSPTSPS-(YSPTSPS)4-YAPTSPS-(YSPTSPS)2-YpSPTSPS-(YSPTSPS)2 [compound 28, dodecaheptad CTD peptide, pSer2 in heptads 2 and 10] | remained at the level of the monovalent phosphopeptide | remained at the level of the monovalent phosphopeptide |  |  | 
not able to compete | not able to compete | not able to compete |  | Ac- YSPTSPS YSPTSPS YSPTSPS YSPTSPS YSPTSPS YSPTSPS -NH2 [compound 3, Ac-hexaheptad CTD peptide amide phosphorylated at each Thr4] |  |  | ~ 8.143 | 8.303 | -5.866
 |  |  |  | H6-NH-(CH2)2-PEG6-CO-YSPTSPS-YpSPTSPS-(YSPTSPS)4-YAPTSPS-(YSPTSPS)-YpSPTSPS-(YSPTSPS)3 [compound 27, dodecaheptad CTD peptide, pSer2 in heptads 2 and 9] | remained at the level of the monovalent phosphopeptide | remained at the level of the monovalent phosphopeptide |  |  | 
not able to compete | not able to compete | not able to compete |  | Ac- YSPTSPS YSPTSPS YSPTSPS YSPTSPS YSPTSPS YSPTSPS -NH2 [compound 4, Ac-hexaheptad CTD peptide amide phosphorylated at each Ser5] |  |  | 7.562 | 1.287 | ~ -3.629
 |  |  | 5 | HHHHHH-NH-(CH2)2-(OCH2CH2)6-CO-YpSPTSPS-YpSPTSPS-YpSPTSPS-YpSPTSPS-YpSPTSPS-YpSPTSPS-NH2 [compound 7, His6-PEG6 hexaheptad CTD peptide, hexa-pSer2] | did not enhance binding | did not enhance binding |  |  | 
